Measurements from patent US20230226096A1 (Orna Therapeutics, Inc., priority 2020, published 2023).
Entries after “also recorded” stand apart in the source; their conditions may differ.

Experiments:
splenic immune cells = experiment: Cre circular RNA LNPs in Cre reporter (Ai9) mice: tdTomato+ splenic immune cells; format: in vivo; settings: 0.5 mg/kg RNA intravenously, 48 hr
Procedure: Circular RNAs encoding Cre recombinase (Cre) are encapsulated into lipid nanoparticles as previously described. Female, 6-8 week old B6.Cg-Gt(ROSA)26Sortm9(CAG-tdTomato)Hze/J (Ai9) mice were dosed with lipid nanoparticles at 0.5 mg/kg RNA intravenously. Fluorescent tdTomato protein was transcribed and translated in Ai9 mice upon Cre recombination, meaning circular RNAs have been delivered to and translated in tdTomato+ cells. After 48 hr, mice were euthanized and the spleens were harvested, processed into a single cell suspension, and stained with various fluorophore-conjugated antibodies for immunophenotyping via flow cytometry.
Ai9 mice (B6.Cg-Gt(ROSA)26Sortm9(CAG-tdTomato)Hze/J, female, 6-8 weeks, n=3 per group) were injected i.v. with 0.5 mg/kg Cre oRNA LNPs or PBS. Ai9 mice transcribe and translate the fluorescent reporter tdTomato upon Cre recombination; meaning cells which are tdTomato+ have successfully been transfected with Cre oRNA.

[1] = In vivo analysis: FLuc oRNA LNPs, whole body and ex vivo IVIS flux in mice; parameters: species or system CD-1 or c57BL/6J mice; settings: 0.5 mg/kg RNA intravenously
Procedure: Female CD-1 or female c57BL/6J mice ranging from 22-25 g were dosed at 0.5 mg/kg RNA intravenously. Six hours after injection, mice were injected intraperitoneally with 200 μL of D-luciferin at 15 mg/mL concentration. 5 minutes after injection, mice were anesthetized using isoflurane, and placed inside the IVIS Spectrum In Vivo Imaging System (Perkin Elmer) with dorsal side up. Post 10 minutes injection, mice were scanned for luminescence. Mice were euthanized and organs were extracted within 25 minutes of luciferin injection to scan for luminescence in liver, spleen, kidneys, lungs, and heart. Images (FIGS. 33A-B, 34A-B, 35A-B) were analyzed using Living Images (Perkin Elmer) software. Regions of interest were drawn to obtain flux and average radiance and analyzed for biodistribution of protein expression (FIG. 32A-B).

primary human T cells = experiment: FLuc oRNA LNP transfection of primary human activated T cells with or without ApoE3; format: cell-based; settings: 200 ng RNA/well, 24-hour incubation, 4 independent donors
Procedure: Primary human T cells from independent donors were stimulated with aCD3/aCD28 and allowed to proliferate for 6 days in the presence of human serum and IL-2. Then, 100,000 cells were plated in a 96 well plate and LNPs containing oRNA coding for Firefly Luciferase (FLuc) were added to the cells at 200 ng RNA/well with or without Apolipoprotein E3 (ApoE3). After 24-hour incubation, luminescence was quantified using the Bright-Glo Luciferase Assay System (Promega) according to manufacturer's instructions and background luminescence from cells not treated with LNPs was subtracted. […] (See Example 70 for LNP formulation procedure, e.g., for 10a-27 (5.7A), 10a-26 (5.7A), 10a-27 (4.5D), and 10a-26 (4.5D) LNPs.)

1C1C7 cells = experiment: GLuc luminescence and functional stability by IRES in 1C1C7 cells; settings: 100 ng circularization reaction per 20,000 cells
HEK293 cells = experiment: GLuc luminescence by IRES in HEK293 cells; settings: 100 ng circularization reaction per 20,000 cells

## CCCCCCCCCOC(=O)CCCCCCCN(CCO)CCCCCCCC(=O)OC(CCCCCCCC)CCCCCCCC [Lipid 15 from Table 10b]
Splenic immune cells
  proportion of splenic immune cells expressing tdTomato (transfection): effective at delivering circular RNAs to many splenic immune cell subsets in mice
[1]
  spleen to liver ratios: maintaining the desired spleen to liver ratios

## CCCCCCCCC(CCCCCC)C(=O)OCCCCCCN(CCCCCCOC(=O)C(CCCCCC)CCCCCCCC)CCCn1ccnc1C (stereo not shown) [Lipid 27 from Table 10a, ((3-(2-methyl-1H-imidazol-1-yl)propyl)azanediyl)bis(hexane-6,1-diyl) bis(2-hexyldecanoate)]
Splenic immune cells; 0.5 mg/kg
  proportion of splenic immune cells expressing tdTomato (transfection): significantly higher myeloid and T cell transfection compared with Lipid 93-S14; also recorded: effective at delivering circular RNAs to many splenic immune cell subsets in mice
Splenic immune cells; listed as Lipid 10a-27, 0.5 mg/kg
  proportion of splenic immune cells expressing tdTomato (transfection): transfect significantly more splenic immune cells than those made with Lipid 10a-46
Primary human T cells
  Firefly luminescence: generally produced higher luminescence than those containing Lipid 26 from Table 10a (10a-26)

B1: Salivirus A SZ-1 (nucleic acid)
DNA: TCTGTCCTCACCCCATCTTCCCTTCTTTCCTGCACCGTTACGCTTACTCGCATGTGCATTGAGTGGTGCACGTGCTTGAACAAACAGCTACACTCACATGGGGGCGGGTTTTCCCGCCCTGCGGCCTCTCGCGAGGCCCACCCCTCCCCTTCCTCCCATAACTACAGTGCTTTGGTAGGTAAGCATCCTGATCCCCCGCGGAAGCTGCTCACGTGGCAACTGTGGGGACCCAGACAGGTTATCAAAGGCACCCGGTCTTTCCGCCTTCAGGAGTATCCCTGCTAGTGAATTCTAGTAGGGCTCTGCTTGGTGCCAACCTCCCCCAAATGCGCGCTGCGGGAGTGCTCTTCCCCAACTCACCCTAGTATCCTCTCATGTGTGTGCTTGGTCAGCATATCTGAGACGATGTTCCGCTGTCCCAGACCAGTCCAGTAATGGACGGGCCAGTGTGCGTAGTCGTCTTCCGGCTTGTCCGGCGCATGTTTGGTGAACCGGTGGGGTAAGGTTGGTGTGCCCAACGCCCGTACTTTGGTGATACCTCAAGACCACCCAGGAATGCCAGGGAGGTACCCCGCTTCACAGCGGGATCTGACCCTGGGCTAATTGTCTACGGTGGTTCTTCTTGCTTCCACTTCTTTCTACTGTTCATG
1C1C7 cells
  luminescence at 24 hours: high luminescence

B2: Crohivirus B IRES: "Crohivirus B (CrVB) IRES", one of the selected IRES sequences, SEQ ID NOs: 348-389 (nucleic acid)
DNA: GTATAAGAGACAGGTGTTTGCCTTGTCTTCGGACTGGCATCTTGGGACCAACCCCCCTTTTCCCCAGCCATGGGTTAAATGGCAATAAAGGACGTAACAACTTTGTAACCATTAAGCTTTGTAATTTTGTAACCACTAAGCTTTGTGCACATAATGTAACCATCAAGCTTGTTAGTCCCAGCAGGAGGTTTGCATGCTTGTAGCCGAAATGGGGCTCGACCCCCCATAGTAGGATACTTGATTTTGCATTCCATTGTGGACCTGCAAACTCTACACATAGAGGCTTTGTCTTGCATCTAAACACCTGAGTACAGTGTGTACCTAGACCCTATAGTACGGGAGGACCGTTTGTTTCCTCAATAACCCTACATAATAGGCTAGGTGGGCATGCCCAATTTGCAAGATCCCAGACTGGGGGTCGGTCTGGGCAGGGTTAGATCCCTGTTAGCTACTGCCTGATAGGGTGGTGCTCAACCATGTGTAGTTTAAATTGAGCTGTTCATATACC
modifications: Crohivirus B
HEK293 cells
  luminescence at 24 hours: highest luminescence
